The supplement of paper PMC10307832

What was measured:
Assay in all cases: relative viability (nuclei count vs DMSO), 5 days (fraction); higher = more cells survive
CAP-232 + Pemetrexed = compound: C[C@H]([C@@H](C(=O)N)NC(=O)[C@@H]1CSSC[C@@H](C(=O)N[C@H](C(=O)N[C@@H](C(=O)N[C@H](C(=O)N1)CCCCN)CC2=CNC3=CC=CC=C32)CC4=CC=C(C=C4)O)NC(=O)[C@@H](CC5=CC=CC=C5)N)O [CAP-232] + Nc1nc2[nH]cc(CCc3ccc(C(=O)N[C@@H](CCC(=O)O)C(=O)O)cc3)c2c(=O)[nH]1 [Pemetrexed] (partner 0.2 µM)
Summary of the method: (§1)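 Nuclei were stained with Hoechst during a one-step fixation (final 0.05% Triton X-100, 1% formaldehyde, 1 ug/ml Hoechst) carried out 5 days after dosing, then counted on 4× images. The cells, lung cancer lines in 1536-well plates, had been dosed by pin tool the day after seeding with one drug alone or a fixed anchor-drug dose plus five library-drug doses (not always all listed) in √10 steps. Relative viability is the nuclei count in treated wells divided by that in vehicle wells, and each value is the median of duplicate plates.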

CAP-232 + Linsitinib = compound: C[C@H]([C@@H](C(=O)N)NC(=O)[C@@H]1CSSC[C@@H](C(=O)N[C@H](C(=O)N[C@@H](C(=O)N[C@H](C(=O)N1)CCCCN)CC2=CNC3=CC=CC=C32)CC4=CC=C(C=C4)O)NC(=O)[C@@H](CC5=CC=CC=C5)N)O [CAP-232] + C[C@]1(O)C[C@@H](c2nc(-c3ccc4ccc(-c5ccccc5)nc4c3)c3c(N)nccn32)C1 [Linsitinib] (partner 1 µM)
Summary of the method: as §1

CAP-232 + Tozasertib = compound: C[C@H]([C@@H](C(=O)N)NC(=O)[C@@H]1CSSC[C@@H](C(=O)N[C@H](C(=O)N[C@@H](C(=O)N[C@H](C(=O)N1)CCCCN)CC2=CNC3=CC=CC=C32)CC4=CC=C(C=C4)O)NC(=O)[C@@H](CC5=CC=CC=C5)N)O [CAP-232] + Cc1cc(Nc2cc(N3CCN(C)CC3)nc(Sc3ccc(NC(=O)C4CC4)cc3)n2)n[nH]1 [Tozasertib] (partner 0.1 µM)
Summary of the method: as §1

CAP-232 + Bortezomib = compound: C[C@H]([C@@H](C(=O)N)NC(=O)[C@@H]1CSSC[C@@H](C(=O)N[C@H](C(=O)N[C@@H](C(=O)N[C@H](C(=O)N1)CCCCN)CC2=CNC3=CC=CC=C32)CC4=CC=C(C=C4)O)NC(=O)[C@@H](CC5=CC=CC=C5)N)O [CAP-232] + CC(C)C[C@H](NC(=O)[C@H](Cc1ccccc1)NC(=O)c1cnccn1)B(O)O [Bortezomib] (partner 0.002 µM)
Summary of the method: as §1

CAP-232 + Phenformin = compound: C[C@H]([C@@H](C(=O)N)NC(=O)[C@@H]1CSSC[C@@H](C(=O)N[C@H](C(=O)N[C@@H](C(=O)N[C@H](C(=O)N1)CCCCN)CC2=CNC3=CC=CC=C32)CC4=CC=C(C=C4)O)NC(=O)[C@@H](CC5=CC=CC=C5)N)O [CAP-232] + N=C(N)NC(=N)NCCc1ccccc1 [Phenformin] (partner 250 µM)
Summary of the method: as §1

Cell Line | relative viability (CAP-232 + Pemetrexed; first compound 0.4 µM) | relative viability (CAP-232 + Pemetrexed; first compound 1.265 µM) | relative viability (CAP-232 + Pemetrexed; first compound 4 µM) | relative viability (CAP-232 + Pemetrexed; first compound 12.65 µM) | relative viability (CAP-232 + Linsitinib; first compound 0.4 µM) | relative viability (CAP-232 + Linsitinib; first compound 1.265 µM) | relative viability (CAP-232 + Linsitinib; first compound 4 µM) | relative viability (CAP-232 + Linsitinib; first compound 12.65 µM) | relative viability (CAP-232 + Tozasertib; first compound 0.4 µM) | relative viability (CAP-232 + Tozasertib; first compound 1.265 µM) | relative viability (CAP-232 + Tozasertib; first compound 4 µM) | relative viability (CAP-232 + Tozasertib; first compound 12.65 µM) | relative viability (CAP-232 + Bortezomib; first compound 0.4 µM) | relative viability (CAP-232 + Bortezomib; first compound 1.265 µM) | relative viability (CAP-232 + Bortezomib; first compound 4 µM) | relative viability (CAP-232 + Bortezomib; first compound 12.65 µM) | relative viability (CAP-232 + Phenformin; first compound 0.4 µM) | relative viability (CAP-232 + Phenformin; first compound 1.265 µM) | relative viability (CAP-232 + Phenformin; first compound 4 µM) | relative viability (CAP-232 + Phenformin; first compound 12.65 µM)
HCC-44 | 0.648 | 0.622 | 0.626 | 0.686 | 0.817 | 0.666 | 0.754 | 0.627 | 0.919 | 0.95 | 1.18 | 1.09 | 1 | 0.864 | 0.948 | 0.893 | 0.392 | 0.128 | 0.194 | 0.171
NCI-H2009 | 1.07 | 1.06 | 1.11 | 1 | 1.2 | 1.18 | 1.22 | 1.09 | 0.757 | 0.713 | 0.823 | 0.684 | 1.09 | 0.974 | 0.97 | 0.843 | 0.501 | 0.493 | 0.547 | 0.42
NCI-H23 | 0.686 | 0.492 | 0.746 | 0.623 | 0.5 | 0.624 | 0.587 | 0.543 | 0.416 | 0.386 | 0.384 | 0.309 | 1.15 | 1.03 | 1.06 | 0.953 | 0.84 | 0.813 | 0.833 | 0.678
NCI-H838 | 0.254 | 0.26 | 0.245 | 0.261 | 1.09 | 1.01 | 1.08 | 0.595 | 0.274 | 0.273 | 0.286 | 0.231 | 0.916 | 0.643 | 0.86 | 0.544 | 0.609 | 0.53 | 0.593 | 0.537
NCI-H1355 | 1.03 | 0.946 | 1.19 | 1 | 0.776 | 0.901 | 1.02 | 0.754 | 0.638 | 0.586 | 0.557 | 0.655 | 1.27 | 1.22 | 1.39 | 1.24 | 0.517 | 0.467 | 0.43 | 0.418
NCI-H2023 | 0.246 | 0.257 | 0.178 | 0.0965 | 0.659 | 0.615 | 0.697 | 0.249 | 0.348 | 0.332 | 0.379 | 0.139 | 1.02 | 1.03 | 1.07 | 0.237 | 0.448 | 0.388 | 0.417 | 0.188
NCI-H2087 | 0.662 | 0.655 | 0.68 | 0.604 | 0.894 | 0.955 | 0.924 | 0.541 | 0.193 | 0.212 | 0.221 | 0.311 | 1.01 | 0.746 | 1.14 | 0.462 | 0.435 | 0.419 | 0.436 | 0.321
PC-14 | 0.121 | 0.123 | 0.137 | 0.127 | 1.01 | 0.955 | 0.955 | 0.775 | 0.644 | 0.575 | 0.542 | 0.565 | 0.931 | 0.817 | 1.07 | 0.821 | 0.577 | 0.56 | 0.659 | 0.386
LC-2-ad | 0.278 | 0.269 | 0.287 | 0.228 | 0.84 | 0.847 | 0.766 | 0.807 | 0.518 | 0.478 | 0.439 | 0.267 | 1.05 | 1.01 | 1.11 | 1 | 0.707 | 0.514 | 0.603 | 0.257
HCC-78 | 0.939 | 0.912 | 0.901 | 0.899 | 0.53 | 0.559 | 0.371 | 0.408 | 0.257 | 0.405 | 0.493 | 0.492 | 0.544 | 0.563 | 0.489 | 0.396 | 0.859 | 0.806 | 0.746 | 0.54
LOU-NH91 | 0.473 | 0.378 | 0.392 | 0.275 | 0.923 | 1.06 | 0.865 | 0.719 | 0.574 | 0.68 | 0.618 | 0.511 | 0.528 | 0.458 | 0.463 | 0.549 | 0.725 | 0.752 | 0.769 | 0.487
NCI-H1734 | 0.44 | 0.402 | 0.402 | 0.307 | 0.848 | 0.917 | 0.951 | 0.766 | 0.248 | 0.272 | 0.266 | 0.197 | 0.919 | 0.902 | 1.06 | 0.74 | 0.369 | 0.321 | 0.387 | 0.264
NCI-H520 | 0.581 | 0.651 | 0.673 | 0.634 | 1.06 | 0.969 | 1.04 | 0.563 | 0.439 | 0.405 | 0.395 | 0.354 | 0.71 | 0.508 | 0.611 | 0.438 | 0.529 | 0.52 | 0.619 | 0.461
NCI-H596 | 0.562 | 0.49 | 0.439 | 0.448 | 1.05 | 1.05 | 1.14 | 1.06 | 0.962 | 1.04 | 0.886 | 0.821 | 1.14 | 1.2 | 0.701 | 0.925 | 0.679 | 0.604 | 0.899 | 0.653
